Here are results for one compound from patent publication US20110280913A1, “Methods and Compositions for Delivering Therapeutic Agents in the Treatment of B-Cell Related Disorders” (THE OHIO STATE UNIVERSITY, priority 2008, published 2011).

Each structure is given as a SMILES string.

The test system of assay [1] is CLL cells. The assay is described as follows: Apoptosis of CLL cells with lenalidomide alone. It counts as cell-based, human. The settings on record: 0.5 μM lenalidomide, 48 or 72 hours. As for the experimental part:
CLL B cells were isolated by Ficoll centrifugation using Rosette-Sep reagent (StemCell Technologies, Vancouver, BC) according to the manufacturer's instructions. CLL cells were incubated in RPMI 1640 medium supplemented with 10% heat-inactivated human serum (Valley Biomedical, Winchester, Va.), 2 mM L-glutamine (Invitrogen, Carlsbad, Calif.), and 100 U/mL penicillin/100 μg/mL streptomycin (Sigma-Aldrich, St Louis, Mo.) at 37° C. in 5% CO2.
In addition, samples with no treatment or crosslinker alone were collected at matched time points. […]
Cytotoxicity results were expressed as percentage of total positive cells over untreated control [% positive cells=(% annexin^+ and/or PI^+ cells of treatment group)−(% annexin^+ and/or PI^+ cells of untreated control)].

In assay [2] the test system is CD23. In words: Immunophenotyping (flow cytometry) of CD23 on CLL cells. In kind it is cell-based, human. The settings on record: 0.5 μM, 48 h, vs vehicle, n=6, P=0.001. As for the experimental part:
Immunophenotyping was performed to determine the percentage and mean fluorescence intensity of CD20, CD19, CD5, CD23, CD38, CD3, and CD52 on CLL cells relative to a specific isotype control. Cells (10^6) were washed in PBS, stained with fluorochrome-labeled antibodies at 4° C., then rinsed in PBS and analyzed by flow cytometry (EPICS-XL; Beckman Coulter, Fullerton, Calif.). A total of 10,000 events were collected and analyzed using Windows Multiple Document Interface for Flow Cytometry (WinMDI). CD20, CD19, CD3, CD5, CD23, and CD38 antibodies were obtained from BD Biosciences (San Jose, Calif.), and CD52 antibody was obtained from Serotec (Raleigh, N.C.).
On the technique in general: A flow cytometer gives signals particle by particle.

Assay [3] deals with CD20. The assay is described as follows: Laser-scanning confocal microscopy of CD20 internalization. It counts as cell-based, human. The settings on record: lenalidomide 48 h at 37° C. As for the experimental part: Binding and internalization of anti-CD20 in CLL cells were examined by laser scanning confocal microscopy. CLL cells were incubated with lenalidomide for 48 hours at 37° C. and then collected and washed twice with PBS followed by fixation with 2% paraformaldehyde. Cells were then attached on a slide glass using Cytospin (Thermo Electron, Waltham, Mass.) and permeablilized with cold acetone for 5 minutes. Before cell membrane and nucleus staining, cells were preincubated with 1% bovine serum albumin in PBS for 1 hour at room temperature to reduce nonspecific binding. Cells were incubated with 50 μg/mL concanavalin A (Invitrogen) for 5 minutes at room temperature to stain cell membrane and with 1 μg/mL DRAQ5TM (Biostatus, Leicestershire, United Kingdom) for 5 minutes at room temperature to stain nucleus. Finally, slides were rinsed twice with PBS and covered with glass for confocal microscopy observation. Green fluorescence of fluorescein isothiocyanate-CD20, red fluorescence of concanavalin A, and blue fluorescence of DRAQ5 were analyzed, and merged images were produced using Zeiss 510 META Laser Scanning Confocal Imaging Systems and LSM Image software (Carl Zeiss, Thornwood, N.Y.).

Assay [4] concerns CD20. In words: Immunoblot of total CD20 protein. It counts as cell-based, human. The settings on record: 48 and 72 hours, relative to vehicle control. How it is done: Immunoblot assays were performed with the multiple antigen detection immunoblotting method as described previously.^23 Whole-cell lysates were prepared and stored in −80° C. Protein concentration was quantified by the bicinchoninic acid method (Pierce Chemical, Rockford, Ill.). Protein samples (50 μg) were separated by sodium dodecyl sulfate-polyacrylamide gel electrophoresis (12%) and transferred to 0.2-μm nitrocellulose membranes (Whatman Schleicher & Schuell, Keene, N.H.) and incubated with goat antihuman CD20 (Santa Cruz Biotechnology, Santa Cruz, Calif.) or rabbit antiactin (Cell Signaling Technology, Danvers, Mass.) antibodies. Horseradish peroxidase-conjugated goat anti-rabbit IgG (Bio-Rad, Hercules, Calif.) was used as secondary antibody Immune complexes were detected using chemiluminescent substrate (SuperSignal; Pierce Chemical).

In assay [5] the test system is CLL cells. The assay is described as follows: Immunoliposome FAM-ODN uptake studies. In kind it is cell-based, human. As for the experimental part: An ethanol dilution method was modified to prepare the FAM-ODN-loaded immunoliposomes.^25 Briefly, protamine sulfate in citric acid (20 mM, pH 4) was mixed with lipids (DC-Chol/Egg-PC/PEG-DSPE [molar ratio]=28.0:70.0:2.0) at a mass ratio of lipids:protamine=12.5:0.3, followed by addition of ODN in citric acid (20 mM, pH 4) at ODN/lipids/protamine (weight ratio)=1:12.5:0.3. The complexes were then dialyzed against citric acid (20 mM, pH 4) for 1 hour and then further dialyzed against N-2-hydroxyethylpiperazine-N′-2-ethanesulfonic acid-buffered saline (145 mM NaCl, 20 mM N-2-hydroxyethylpiperazine-N′-2-ethanesulfonic acid, pH 7.4) overnight, using a DispoDialyzer (Spectrum Labs, Rancho Dominguez, Calif.) with a molecular weight cutoff of 10,000 Da. Liposome size distribution was analyzed by dynamic light scattering on a NICOMP Particle Sizer Model 370 (Particle Sizing Systems, Santa Barbara, Calif.).
A postinsertion method was adopted to incorporate antibody ligands into preformed liposomes containing FAM-ODN. In this method, rituximab, trastuzumab (anti-Her2), or alemtuzumab (anti-CD52) was incubated with 20× Traut reagent (2 hours at room temperature) to yield sulfhydryl-modified antibodies. The anti-CD20—sulfhydryl was then incubated with micelles of Mal-PEG-DSPE at a molar ratio of 1:10 and then incubated with FAM-ODN loaded liposomes for 1 hour at 37° C. Targeted liposomes with antibody-PEG-DSPE-to-lipid ratios of 1:1000 ([…]) were thus prepared.
CLL cells were incubated at 10^6 cells/mL for 1 hour at 37° C. with rituximab-, trastuzumab-, or alemtuzumab-coated immunoliposome-FAM-ODN (CODN=1.0 μM) and washed twice in PBS. Cells were kept in culture in RPMI 10% fetal bovine serum for an additional 1, 4, and 24 hours, respectively, in the presence of either 0.5 μM lenalidomide or vehicle control. […] Cells were visualized on a Nikon fluorescence microscope (magnification ×200).
The inventors herein used a FAM-ODN formulated into rituximab-coated immunoliposomes. […] Cells were visualized on a Nikon fluorescence microscope (magnification, ×200).

Assay [6] relates to human monocytes. The assay is described as follows: Antibody-dependent cellular phagocytosis by human monocytes. It counts as cell-based. Conditions: data not shown.
Assay [7] relates to B-cell lymphoma cell lines. The settings on record: cited from earlier work.
Where [8] appears, read: rituximab-coated immunoliposome-FAM-ODN, 0.5 μM lenalidomide.

Take `Nc1cccc2c1CN(C1CCC(=O)NC1=O)C2=O` (stereo not drawn) [lenalidomide]: in assay [1], the apoptosis in vitro entry is listed as “no apoptosis”. Moreover, the “CD23 activation marker level on CLL cells” value in assay [2] was “increased levels”. Further, in assay [3], the “CD20 internalization in CLL cells” value was “actively internalized”. Besides, the “total level of CD20 protein” value in assay [4] is reported as “no variation”. Also, the “internalization of fluorochrome-labeled ODN from rituximab-coated immunoliposomes” value in assay [5] (0.5 μM lenalidomide after 1 h immunoliposome-FAM-ODN (1.0 μM), N=3) is “enhanced internalization”. In assay [5] (setting [8]), the “earliest time of enhanced ODN internalization” value stood at 1 h and the “time of maximum effect on ODN internalization” value came to 24 h. In assay [6], the antibody-dependent cellular phagocytosis entry is given as “not modulated”. For the same compound, the “CD20 surface antigen expression” value in assay [7] is “without affecting”.
